Each structure is given as a SMILES string. In brackets after ≈: the same amount, converted by molar mass.

In assay [1] the test system is HepG2. The assay can be described thus: Antiproliferative activity against human HepG2 cells after 72 hrs by ELISA. The format is functional, cell-based. Particulars: HepG2, 72 h.
Assay [2] concerns Caco-2. The assay can be described thus: Antiproliferative activity against human Caco2 cells after 72 hrs by ELISA. It counts as functional, cell-based. Particulars: Caco-2, 72 h.
Assay [3] deals with MCF7. Kind of assay: Antiproliferative activity against human MCF7 cells after 72 hrs by ELISA. The format is functional, cell-based. Conditions: MCF7, 72 h. A general note: An ELISA detects its analyte on a solid surface through an enzyme-linked reagent.
Assay [4] concerns HeLa. The assay can be described thus: Cytotoxicity against human HeLa cells assessed as reduction in cell viability after 72 hrs by MTT assay. The format is functional, cell-based. In general terms: Formazan colour is commonly taken as a measure of viable cells.
The test system of assay [5] is Caco-2. The assay can be described thus: Cytotoxicity against human Caco2 cells assessed as reduction in cell viability after 72 hrs by MTT assay. Particulars: Caco-2, 72 h. The format is functional, cell-based.
The subject of assay [6] is K562. Kind of assay: Cytotoxicity against human K562 cells assessed as reduction in cell viability after 72 hrs by MTT assay. The format is functional, cell-based. Particulars: K562, 72 h.
The test system of assay [7] is HepG2. The assay can be described thus: Cytotoxicity against human HepG2 cells assessed as reduction in cell viability by MTT assay. The format is functional, cell-based. Particulars: Homo sapiens, HepG2.
Assay [8] has as its system MCF7. The assay can be described thus: Cytotoxicity against human MCF7 cells assessed as reduction in cell viability by MTT assay. It counts as functional, cell-based. Particulars: Homo sapiens, MCF7.
For a further assay, the system named is HCT-116. The assay can be described thus: Cytotoxicity against human HCT116 cells assessed as reduction in cell viability after 96 hrs by MTT assay. It counts as functional, cell-based. Particulars: HCT-116, 96 h.
A further assay relates to MDA-MB-231. The assay can be described thus: Cytotoxicity against human MDA-MB-231 cells assessed as reduction in cell viability after 96 hrs by MTT assay. The format is functional, cell-based. Particulars: MDA-MB-231, 96 h.
For the next assay, the system named is HT-29. Kind of assay: Cytotoxicity against human HT-29 cells assessed as reduction in cell viability after 96 hrs by MTT assay. It counts as functional, cell-based. Particulars: HT-29, 96 h.
The test system of another assay is SK-MEL-28. The assay can be described thus: Cytotoxicity against human SK-MEL-28 cells assessed as reduction in cell viability after 24 hrs by MTT assay. It counts as functional, cell-based. Particulars: SK-MEL-28, 24 h.
The subject of the next assay is BT-20. Kind of assay: Cytotoxicity against human BT20 cells assessed as reduction in cell viability after 24 hrs by MTT assay. It counts as functional, cell-based. Particulars: BT-20, 24 h.
A further assay concerns DU-145. The assay can be described thus: Cytotoxicity against human DU145 cells assessed as reduction in cell viability after 24 hrs by MTT assay. Conditions: DU-145, 24 h. The format is functional, cell-based.
In assay [9] the test system is A549. Kind of assay: Cytotoxicity against human A549 cells assessed as reduction in cell viability after 24 hrs by MTT assay. It counts as functional, cell-based. Conditions: A549, 24 h.
Assay [10] deals with RAC-alpha serine/threonine-protein kinase (Homo sapiens, UniProt P31749). The assay can be described thus: Inhibition of AKT phosphorylation in human K562 cells. The format is cell-based.
RAC-alpha serine/threonine-protein kinase, sequence (P31749 whole entry): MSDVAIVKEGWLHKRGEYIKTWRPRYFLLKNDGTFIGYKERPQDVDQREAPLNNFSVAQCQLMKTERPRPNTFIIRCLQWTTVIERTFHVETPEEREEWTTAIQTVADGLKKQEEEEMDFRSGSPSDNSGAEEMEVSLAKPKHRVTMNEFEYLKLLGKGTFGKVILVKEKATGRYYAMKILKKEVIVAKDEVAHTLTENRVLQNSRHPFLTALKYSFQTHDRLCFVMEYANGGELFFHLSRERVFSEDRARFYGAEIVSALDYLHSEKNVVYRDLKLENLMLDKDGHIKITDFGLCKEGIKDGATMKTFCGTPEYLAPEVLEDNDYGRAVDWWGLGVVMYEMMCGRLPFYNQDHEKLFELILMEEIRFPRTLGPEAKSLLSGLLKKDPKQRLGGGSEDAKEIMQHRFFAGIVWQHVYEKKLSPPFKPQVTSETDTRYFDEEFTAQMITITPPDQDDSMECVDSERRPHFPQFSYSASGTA
For assay [11], the system named is MCF7. Kind of assay: Cytotoxicity against human MCF7 cells assessed as reduction in cell viability after 68 hrs by MTT assay. The format is functional, cell-based. Conditions: MCF7, 68 h.
The test system of assay [12] is HeLa. Kind of assay: Cytotoxicity against human HeLa cells assessed as reduction in cell viability after 68 hrs by MTT assay. It counts as functional, cell-based.
The test system of assay [13] is K562. The assay can be described thus: Cytotoxicity against human K562 cells assessed as reduction in cell viability after 68 hrs by MTT assay. The format is functional, cell-based. Conditions: K562, 68 h.
In assay [14] the test system is A549. The assay can be described thus: Cytotoxicity against human A549 cells assessed as reduction in cell viability after 68 hrs by MTT assay. The format is functional, cell-based. Particulars: A549, 68 h.
Assay [15] concerns A549. Kind of assay: Cytotoxicity against human A549 cells assessed as reduction in cell viability by MTT assay. The format is functional, cell-based.

Regarding `C/C(=N\Nc1c(Cl)cc(Cl)cc1Cl)c1ccc(NS(=O)(=O)c2ccc3oc(=O)ccc3c2)cc1`, the IC50 in the assay with HepG2 [1], in the assay on Caco-2 [2] and with MCF7 [3] was 5.03 to 175 µM throughout.

In the case of `O=c1cc(Cn2cc(-c3ccccc3)nn2)c2cc(O)c(O)cc2o1`, the IC50 in the assay on HeLa [4], with Caco-2 [5] and in the assay with K562 [6] was 9.7 to 81.9 µM each time.

`Cc1ccc2oc(=O)cc(CSc3nc(-c4ccccc4)c(C#N)c(N4CCNCC4)n3)c2c1`: the IC50 with HepG2 [7] and with MCF7 [8] was 5.5 to 91.1 µM throughout.

`Cc1cc(C)c2c(Cn3cc(CO[C@H]4O[C@@H]5O[C@@]6(C)CC[C@H]7[C@H](C)CC[C@@H]([C@H]4C)[C@@]57OO6)nn3)cc(=O)oc2c1`: the IC50 in the assay on HCT-116, in the assay with MDA-MB-231 and in the assay with HT-29 was 8.57 to 100 µM each time.

For `C[C@H]1[C@@H](OCc2cn(Cc3cc(=O)oc4cc(O)ccc34)nn2)O[C@@H]2O[C@@]3(C)CC[C@H]4[C@H](C)CC[C@@H]1[C@@]24OO3`, the IC50 with HCT-116, with MDA-MB-231 and with HT-29 was 8.57 to 100 µM in each case.

Take `Cc1ccc2oc(=O)cc(Cn3cc(CO[C@H]4O[C@@H]5O[C@@]6(C)CC[C@H]7[C@H](C)CC[C@@H]([C@H]4C)[C@@]57OO6)nn3)c2c1`: the IC50 with HCT-116, in the assay on MDA-MB-231 and with HT-29 was 8.57 to 100 µM each time.

For `O=C(Cn1nc(Cc2ccc(Br)cc2)[nH]c1=O)NNC(=O)c1cc2cc(Cl)cc(Cl)c2oc1=O`, the IC50 in the assay on SK-MEL-28, in the assay on BT-20, in the assay with DU-145 and with A549 [9] was 3.1 to 37.9 µg/mL (≈ 5.47 to 66.8 µM) throughout.

As to `Cc1c(Cc2ccc(NC(=O)Nc3cccc(Cl)c3)nc2)c(=O)oc2cc(O)c(C(C)(C)C)cc12`, the IC50 in [10] was under 10 µM; in the assay on MCF7 [11] it was 1.66 to 9.27 µM; with HeLa [12], 1.66 to 9.27 µM; in the assay on K562 [13] it was 1.66 to 9.27 µM; with A549 [14], 1.66 to 9.27 µM.

Regarding `Cc1ccc2oc(=O)cc(CSc3nc(-c4ccccc4)c(C#N)c(N4CCOCC4)n3)c2c1`, the IC50 in the assay on HepG2 [7] and in the assay with MCF7 [8] was 5.5 to 91.1 µM throughout.

In the case of `CCN(CC)c1ccc2cc(C(=O)NNC(=O)Cn3nc(Cc4cccc(Br)c4)[nH]c3=O)c(=O)oc2c1`, the IC50 in the assay with SK-MEL-28, with BT-20, in the assay with DU-145 and in the assay with A549 [9] was 3.1 to 37.9 µg/mL (≈ 5.44 to 66.6 µM) each time.

Take `COc1ccccc1-c1cn(Cc2cc(=O)oc3cc(O)c(O)cc23)nn1`: the IC50 with HeLa [4], in the assay with Caco-2 [5] and in the assay with K562 [6] was 9.7 to 81.9 µM throughout.

On to `CCN(CC)c1ccc2cc(C(=O)NNC(=O)Cn3nc(Cc4ccc(Cl)c(Cl)c4)[nH]c3=O)c(=O)oc2c1`, for which the IC50 with SK-MEL-28, in the assay on BT-20, with DU-145 and in the assay on A549 [9] was 3.1 to 37.9 µg/mL (≈ 5.54 to 67.7 µM) throughout.

For the compound `Cc1ccc2oc(=O)cc(CSc3nc(NCc4ccccc4)c(C#N)c(-c4ccccc4)n3)c2c1`, the IC50 in the assay on HepG2 [7] and in the assay with MCF7 [8] was 5.5 to 91.1 µM each time.

In the case of `Cc1c(Cc2ccc(NC(=O)Nc3ccc(F)cc3)nc2)c(=O)oc2cc(O)c(C(C)(C)C)cc12`, the IC50 in assay [10] was under 10 µM; in the assay with MCF7 [11], 1.66 to 9.27 µM; in the assay on HeLa [12], 1.66 to 9.27 µM; in the assay on K562 [13], 1.66 to 9.27 µM; in the assay on A549 [14], 1.66 to 9.27 µM.

On to `Cc1cc(=O)oc2cc(NC(=O)CNCc3cccnc3)ccc12`, for which the IC50 in the assay on A549 [15] and in the assay with MCF7 [8] was 69.1 to 378 µM in each case.

For `Cc1ccc2oc(=O)cc(CSc3nc(NN)c(C#N)c(-c4ccccc4)n3)c2c1`, the IC50 in the assay with HepG2 [7] amounted to 5.5 µM; with MCF7 [8], 6.9 µM.

Usually IC50 stands for the concentration that inhibits the measured activity by half.

The record behind these values is ChEMBL document CHEMBL4373717, “Coumarin-containing hybrids and their anticancer activities” (Eur J Med Chem, 2019).
